Laboratory results taken from patent publication US20110086884A1, “BARIUM SALT OF BENZIMIDAZOLE DERIVATIVE” (priority 2003, published 2011).

Assay: hygroscopicity of the solid salt
Type: physicochemical
Details: both crystalline and amorphous forms

COc1ccc2[nH]c([S@@+]([O-])Cc3ncc(C)c(OC)c3C)nc2c1 [(S)-omeprazole barium, (S)-5-methoxy-2-[[(4-methoxy-3,5-dimethyl-2-pyridinyl)-methyl]sulfinyl]-1H-benzimidazole]
hygroscopicity: non-hygroscopic
